In patent publication US6683103B2, “Sulfonamides for treatment of endothelin-mediated disorders” (Texas Biotechnology Corporation, priority 1997, dated 2004):
Read-outs that look alike come from different tables or passages of the source.

Experiments:
[1] = target: T1, human ETB receptor (Homo sapiens, UniProt P24530); test: Binding Test #2: inhibition of 125I-ET-1 binding to ETB receptors (transfected COS7 cell membranes); details: read-out: ETB
T1 construct: expressed in transfected cells; host or cells: COS7 cells
T1 sequence (P24530 27-442): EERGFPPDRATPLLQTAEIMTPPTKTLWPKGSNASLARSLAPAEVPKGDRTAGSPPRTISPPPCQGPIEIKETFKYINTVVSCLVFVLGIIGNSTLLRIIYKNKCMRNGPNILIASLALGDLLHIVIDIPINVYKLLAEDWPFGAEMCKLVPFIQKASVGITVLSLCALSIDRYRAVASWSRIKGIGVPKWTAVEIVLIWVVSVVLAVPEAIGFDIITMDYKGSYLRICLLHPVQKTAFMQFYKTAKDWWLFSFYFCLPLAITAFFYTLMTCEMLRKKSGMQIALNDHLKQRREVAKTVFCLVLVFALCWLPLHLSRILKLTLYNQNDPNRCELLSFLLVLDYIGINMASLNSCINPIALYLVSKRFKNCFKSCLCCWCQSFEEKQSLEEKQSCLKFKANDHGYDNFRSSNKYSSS
Description: (§1) Compounds that are potential endothelin antagonists are identified by testing their ability to compete with ^125I-labeled ET-1 for binding to human ETA receptors or ETB receptors present on isolated cell membranes. The effectiveness of the test compound as an antagonist or agonist of the biological tissue response of endothelin can also be assessed by measuring the effect on endothelin induced contraction of isolated rat thoracic aortic rings. The ability of the compounds to act as antagonists or agonists for ETB receptors can be assess by testing the ability of the compounds are to inhibit endothelin-1 induced prostacyclin release from cultured bovine aortic endothelial cells.
B. Endothelin Binding Inhibition—Binding Test #2: Inhibition of Binding to ETB Receptors
COS7 cells were transfected with DNA encoding the ETB receptor, The resulting cells, which express the human ETB receptor, were grown to confluence in T-150 flasks. Membrane was prepared as described above. The binding assay was performed as described above using the membrane preparation diluted with binding buffer to a concentration of 1 μg/50 μl.
Briefly, the COS7 cells, described above, that had been transfected with DNA encoding the ETB receptor and express the human ETB receptor on their surfaces were grown to confluence in T-1 75 flasks. Cells from multiple flasks were collected by scraping, pooled and centrifuged for 10 min at 190×g. The cells were resuspended in phosphate buffered saline (PBS) containing 10 mM EDTA using a Tenbroeck homogenizer. The suspension was centrifuged at 4° C. 57,800 X g for 15 min, the pellet was resuspended in 5 ml of buffer A (5mM HEPES buffer, pH 7.4 containing aprotinin (100 KIU/ml)) and then frozen and thawed once. Five ml of Buffer B (5 mM HEPES Buffer, pH 7.4 containing 10 mM MnCl2 and 0.001% deoxyribonuclease Type 1) was added, the suspension mixed by inversion and then incubated at 37° C. for 30 minutes. The mixture was centrifuged at 57,800×g as described above, the pellet washed twice with buffer A and then resuspended in buffer C (30 mM HEPES buffer, pH 7.4 containing aprotinin (100 KIU/ml) to give a final protein concentration of 2 mg/ml.
The binding assay was performed as described above using the membrane preparation diluted to give 1 μg/50 μl of binding buffer.

[2] = target: T2, human ETA receptors (Homo sapiens, UniProt P25101); test: Binding Test #1: inhibition of 125I-ET-1 binding to ETA receptors (TE 671 cell membranes)
T2 construct: endogenous in cells; host or cells: TE 671 cells (ATCC HTB 139)
T2 sequence (P25101 21-427): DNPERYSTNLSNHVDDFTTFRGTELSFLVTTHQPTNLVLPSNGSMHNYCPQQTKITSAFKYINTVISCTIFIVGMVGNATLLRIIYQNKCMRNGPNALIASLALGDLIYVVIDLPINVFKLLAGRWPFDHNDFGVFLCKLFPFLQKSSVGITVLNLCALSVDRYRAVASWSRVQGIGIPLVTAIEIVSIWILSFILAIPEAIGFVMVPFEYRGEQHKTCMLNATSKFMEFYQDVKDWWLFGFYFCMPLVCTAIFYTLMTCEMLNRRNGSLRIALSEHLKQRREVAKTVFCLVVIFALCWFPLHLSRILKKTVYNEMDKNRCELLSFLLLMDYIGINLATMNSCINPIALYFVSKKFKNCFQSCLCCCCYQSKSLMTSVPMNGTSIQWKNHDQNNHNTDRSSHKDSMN
Description: as §1
A. Endothelin Binding Inhibition—Binding Test #1: Inhibition of Binding to ETA Receptors
TE 671 cells (ATCC Accession No. HTB 139) express ETA receptors. These cells were grown to confluence in T-175 flasks. Cells from multiple flasks were collected by scraping, pooled and centrifuged for 10 min at 190×g. The cells were resuspended in phosphate buffered saline (PBS) containing 10 mM EDTA using a Tenbroeck homogenizer. The suspension was centrifuged at 4° C. at 57,800×g for 15 min, the pellet was resuspended in 5 ml of buffer A (5 mM HEPES buffer, pH 7.4 containing aprotinin (100 KIU/ml)) and then frozen and thawed once. 5 ml of Buffer B (5 mM HEPES Buffer, pH 7.4 containing 10 mM MnCl2 and 0.001% deoxyribonuclease Type 1) was added, the suspension mixed by inversion and then incubated at 37° C. for 30 minutes. The mixture was centrifuged at 57,800×g as described above, the pellet washed twice with buffer A and then resuspended in buffer C (30 mM HEPES buffer, pH 7.4 containing aprotinin (100 KIU/ml) to give a final protein concentration of 2 mg/ml and stored at −70° C. until use.
The membrane suspension was diluted with binding buffer (30 mM HEPES buffer, pH 7.4 containing 150 mM NaCl, 5mM MgCl2, 0.5% Bacitracin) to a concentration of 8 μg/50 μl. ^125I-endothelin-1 (3,000 cpm, […]) was added to 50 μL of either: (A) endothelin-1 (for non specific binding) to give a final concentration 80 nM); (B) binding buffer (for total binding); or (C) a test compound (final concentration 1 nM to 100 μM). The membrane suspension (50 μL), containing up to 8 μg of membrane protein, was added to each of (A), (B), or (C). Mixtures were shaken, and incubated at 4° C. for 16-18 hours, and then centrifuged at […] for 25 min at 2,500×g. Alternatively, the incubation was conducted at 24° C. […] This, must be kept in mind when comparing IC50 concentrations among compounds provided herein.
The supernatant, containing unbound radioactivity, was decanted and the pellet counted on a Genesys multiwell gamma counter. The degree of inhibition of binding (D) was calculated according to the following equation: [formula]
Each test was generally performed in triplicate.

[3] = Table 1, † incubation at 24° C.
[4] = Table 1, † incubation at 24° C., read-out: ETA
[5] = Table 3, † incubation at 24° C., read-out: ETA
[6] = Table 1, incubation at 4° C., read-out: ETA

Cc1ccc(/C=C/c2sccc2S(=O)(=O)Nc2onc(C)c2Br)cc1
IC50 [1, 3]: 413 nM | IC50 [2, 4]: 260 nM

Cc1cc(C)c(OC(N)=O)c(C)c1NC(=O)c1sccc1S(=O)(=O)Nc1onc(C)c1Cl [3-(((3-(((4-chloro-3-methyl-5-isoxazolyl)amino)sulfonyl)-2-thienyl)carbonyl)amino)-2,4,6-trimethyiphenyl carbamate]
IC50 [2, 5]: 5.45 nM

COC(=O)Oc1c(C)cc(C)c(NC(=O)c2sccc2S(=O)(=O)Nc2onc(C)c2Cl)c1C [3-(((3-(((4-chloro-3-methyl-5-isoxazolyl)amino)sulfonyl)-2-thienyl)carbonyl)amino)-2,4,6-trimethylphenyl methyl carbonate]
IC50 [2, 5]: 0.75 nM

CCC(=O)c1cc(C)cc(C)c1NC(=O)c1sccc1S(=O)(=O)Nc1onc(C)c1Cl [3-(((4-chloro-3-methyl-5-isoxazolyl)amino)sulfonyl)-N-(2,4-dimethyl-6-propionylphenyl)-2-thiophenecarboxamide]
ETA/ETB selectivity ([2]; Table 3): 21000^∥ | IC50 [2, 5]: 0.61 nM

Cc1cc(C)c(NC(=O)c2sccc2S(=O)(=O)Nc2onc(C)c2Cl)c(C(=O)C2CCCCC2)c1 [3-(((4-chloro-3-methyl-5-isoxazolyl)amino)sulfonyl)-N-(2-(cyclohexylcarbonyl)-4,6-dimethylphenyl)-2-thiophenecarboxamide]
ETA/ETB selectivity ([2]; Table 3): 1300^∥ | IC50 [2, 5]: 14.9 nM

Cc1noc(NS(=O)(=O)c2cc(Br)c(Cl)s2)c1Br [4-bromo-5-chloro-N-(4-Bromo-3-methyl-5-isoxazolyl)-thiophene-2-sulfonamide]
IC50 ([1]; Table 1, incubation at 4° C.): 2670 nM | IC50 [2, 6]: 359 nM

Cc1cc(NS(=O)(=O)c2ccc(-c3ccon3)s2)on1 [5-(3-isoxazolyl)-N-(3-methyl-5-isoxazolyl)-2-thiophenesulfonamide]
IC50 ([1]; Table 1, incubation at 4° C.): 6700 nM | IC50 [2, 6]: 5600 nM

Cc1noc(NS(=O)(=O)c2cccn2-c2ccc(-c3ccccc3)cc2)c1Br [(4-bromo-3-methyl-5-isoxazolyl)-1-(4′-biphenyl)pyrrole-2-sulfonamide]
IC50 ([1]; Table 1, incubation at 4° C.): 7840 nM | IC50 [2, 6]: 9170 nM

Cc1noc(NS(=O)(=O)c2ccsc2NC(=O)Nc2sccc2S(=O)(=O)Nc2onc(C)c2C)c1C [N,N′-bis{3-[3,4-dimethyl-5-isoxazolyl)aminosulfonyl]thien-2-yl}urea]
IC50 ([1]; Table 1, incubation at 4° C.): 3700 ± 2700 nM | IC50 [1, 3]: 5900 nM | IC50 [2, 6]: 1010 ± 1030 nM | IC50 [2, 4]: 2700 nM

Cc1noc(NS(=O)(=O)c2ccsc2NC(=O)Nc2sccc2S(=O)(=O)Nc2onc(C)c2Br)c1Br [N,N′-bis{3-[(4-bromo-3-methyl-5-isoxazolyl)aminosulfonyl)thien-2-yl} urea]
IC50 ([1]; Table 1, incubation at 4° C.): 290 nM | IC50 [1, 3]: 1190 nM | IC50 [2, 6]: 69.2 nM | IC50 [2, 4]: 295 nM

CC(=O)c1cc(C)cc(C)c1NC(=O)c1sc(C)cc1S(=O)(=O)Nc1onc(C)c1Cl [N-(2-acetyl-4,6-dimethylphenyl)-3-(((4-chloro-3-methyl-5-isoxazolyl)amino)sulfonyl)-5-methyl-2-thiophenecarboxamide]
ETA/ETB selectivity ([2]; Table 3): 9000^∥ | IC50 [2, 5]: 2.94 nM

Cc1cc(C)c(NC(=O)c2sccc2S(=O)(=O)Nc2onc(C)c2Cl)c(C(=O)c2ccccc2)c1 [N-(2-benzoyl-4,6-dimethylphenyl)-3-(((4-chloro-3-methyl-5-isoxazolyl)amino)sulfonyl)-2-thiophenecarboxamide]
ETA/ETB selectivity ([2]; Table 3): 6000^∥ | IC50 [2, 5]: 4.26 nM

Cc1noc(NS(=O)(=O)c2ccsc2C(=O)Oc2ccc3c(c2)OCO3)c1C [N-(3,4-dimenthyl-5-isoxazolyl)-2-[3,4-(methylenedioxy)phenox] [N-(3,4-dimenthyl-5-isoxazolyl)-2-[3,4-(methylenedioxy)phenoxycarbonyl]thiophene-3-sulfonamide]
IC50 [1, 3]: > 50000 nM | IC50 [2, 4]: 6100 nM

Cc1noc(NS(=O)(=O)c2ccsc2C(=O)Nc2ccccc2)c1C [N-(3,4-dimethyl-5-isoxazolyl)-2-(N-phenylaminocarbonyl)thiophene-3-sulfonamide]
IC50 ([1]; Table 1, incubation at 4° C.): ~170000 nM | IC50 [2, 6]: 18.2 nM

COC(=O)c1sccc1S(=O)(=O)Nc1onc(C)c1C [N-(3,4-dimethyl-5-isoxazolyl)-2-(carbomethoxy)thiophene-3-sulfonamide]
IC50 [2, 6]: 367 nM

Cc1noc(NS(=O)(=O)c2ccsc2C(=O)O)c1C [N-(3,4-dimethyl-5-isoxazolyl)-2-(carboxyl)thiophene-3-sulfonamide]
IC50 ([1]; Table 1, incubation at 4° C.): > 100000 nM | IC50 [2, 6]: 2640 nM

Cc1noc(NS(=O)(=O)c2ccccc2-c2ccccc2)c1C [N-(3,4-dimethyl-5-isoxazolyl)-2-biphenylsulfonamide]
IC50 ([1]; Table 2, incubation at 4° C.): 12800 nM | IC50 ([2]; Table 2, incubation at 4° C., read-out: ETA): 8.3 ± 1.4 nM | IC50 ([2]; read-out: IC50 for ETA receptors): ~8 nM

Cc1noc(NS(=O)(=O)c2ccco2)c1C [N-(3,4-dimethyl-5-isoxazolyl)furan-2-sulfonamide]
IC50 [2, 6]: 3130 nM

Cc1noc(NS(=O)(=O)c2cc(S(=O)(=O)c3ccccc3)cs2)c1Br [N-(4-Bromo-3-methyl-5-isoxazolyl)-4-benzenesulfonylthiophene-2-sulfonamide]
IC50 [2, 6]: 383 nM

Cc1ccc(OC(=O)c2sccc2S(=O)(=O)Nc2onc(C)c2Br)cc1 [N-(4-bromo-3-methyl-5-isoxazolyl)-2-[(4-methylphenoxy)carbonyl]thiophene-3-sulfonamide]
IC50 [2, 4]: 122000 nM

COC(=O)c1cc(OC)c(OC)cc1NC(=O)c1sccc1S(=O)(=O)Nc1onc(C)c1Cl [N-(4-chloro-3-methyl-5-isoxazolyl)2-{[4,5-dimethoxy-2,4,5-di] [N-(4-chloro-3-methyl-5-isoxazolyl)2-{[4,5-dimethoxy-2,4,5-dimethoxy-2-methoxycarbonyl)phenyl]phenylaminocarbonyl}thiophene-3-sulfonamide]
IC50 [2, 4]: 3800 nM
